Results from US8461181B2, “Fused heterocyclic compound and use thereof” (Sumitomo Chemical Company, Ltd., priority 2009, dated 2013).

Tests used:
Type in all cases: in vivo
Aphis gossypii [1] = test: Test Example 1: spray on cucumber seedling inoculated with Aphis gossypii; conditions: 500 ppm, 10 ml sprayed on cucumber seedling inoculated with about 30 Aphis gossypii; five days after spraying
Description: The formulations of the present active compounds (1) to (15), (17) to (25), (27) to (56), (101) to (103), (105) to (108), (117), (118), (121) to (130), (133) to (144), (147), (148), (152) to (156), (202), (204) to (206), (208), (209), (211) to (213), and (216) to (221) obtained by Formulation Example 5 were diluted with water so that the active ingredient concentration was 500 ppm, to prepare spray solutions for test. Separately, a cucumber seedling (second true leaf spreading stage) planted on a plastic cup was inoculated with about 30 Aphis gossypii, and left for 1 day. The above-described diluted solutions were sprayed each in an amount of 10 ml on this seedling. Five days after spraying, the number of insect of living Aphis gossypii […] on the leaves of this cucumber was checked, and the control value was calculated according to the following formula. Control value (%)={1-(Cb×Tai)/(Cai×Tb)}×100 Letters in the formula represent the following meanings. Cb: the number of insect before treatment on non-treated district Cai: the number of insect in observation on non-treated district Tb: the number of insect before treatment on treated district Tai: the number of insect in observation on treated district

Bemisia tabaci = test: Test Example 5: spray on tomato seedling with Bemisia tabaci larvae; conditions: 168 h, 10 ml/cup sprayed on tomato seedling with hatching Bemisia tabaci larvae, 7 days at 25° C.
Description: The formulations of the present active compounds (1) to (5), (7) to (15), (17) to (21), (25), (28) to (45), (48) to (56), (101) to (103), (106), (107), (117), (118), (121) to (145), (147) to (151), (153) to (155), (204), (206), (208), (209), (211) to (213) and (216) to (221) obtained by Formulation Example 5 were diluted with water so that the active ingredient concentration was 500 ppm, to prepare spray solutions for test. Separately, on a tomato seedling planted on a plastic cup, Bemisia tabaci adult insects were released and allowed to lay eggs for about 24 hours. The tomato seedling was kept in a greenhouse […], and the above-described spray solutions for test were sprayed at a proportion of 10 ml/cup on the condition of hatching of larvae from the laid eggs, and kept in a greenhouse of 25° C. for 7 days. The number of living larvae on the tomato leaves was checked, and the control value was calculated according to the following formula. Control value (%)={1−(Cb×Tai)/(Cai×Tb)}×100 Letters in the formula represent the following meanings. Cb: the number of insect before treatment on non-treated district Cai: the number of insect in observation on non-treated district Tb: the number of insect before treatment on treated district Tai: the number of insect in observation on treated district

Aphis gossypii [2] = test: Test Example 3: root immersion of cucumber seedling, Aphis gossypii; conditions: 168 h, cucumber root part immersed in 5 ml, inoculated one day after treatment, checked seven days after
Procedure, shortened: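 Roots of washed cucumber seedlings (first true leaf stage) immersed in 500 ppm water-diluted formulation; 30 A. gossypii (whole stage) placed on leaves one day later. Living aphids counted seven days after, control value (%) = {1-(Cb×Tai)/(Cai×Tb)}×100 vs non-treated.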

Nilaparvata lugens [3] = test: Test Example 9: foot drench of rice seedling, twenty first instar larvae of Nilaparvata lugens; conditions: soil, 144 h, 5 ml drench at foot of rice seedling, kept 7 days, twenty first instar larvae released, further 6 days
Description: The formulations of the present active compounds (6), (7), (18), (22), (25), (30), (33), (46), (47), (53), (101) to (103), (106), (121) to (124), (126) to (128), (135), (139), (216) and (217) obtained by Formulation Example 5 were diluted with water so that the active ingredient concentration was 500 ppm, to prepare diluted solutions for test. Separately, a rice seedling (2 weeks after sowing, second leaf spreading stage) planted on a plastic cup was drenched at its foot with each 5 ml of the diluted solutions, and kept in a greenhouse of 25° C. for 7 days. Twenty first instar larvae of Nilaparvata lugens were released, and further kept in the greenhouse for 6 days, then, the number of insect of living Nilaparvata lugens […] on rice was checked, and the control value was calculated according to the following formula. Control value (%)={1-(Cb×Tai)/(Cai×Tb)}×100 Letters in the formula represent the following meanings. Cb: the number of insect before treatment on non-treated district Cai: the number of insect in observation on non-treated district Tb: the number of insect before treatment on treated district Tai: the number of insect in observation on treated district

Nilaparvata lugens [4] = test: Test Example 8: spray on rice seedling, 20 first instar larvae of Nilaparvata lugens; conditions: 144 h, 10 ml sprayed on rice seedling, 20 first instar larvae released, 6 days at 25° C.
Description: The formulations of the present active compounds (6), (7), (18), (21), (24), (25), (28) to (30), (32), (46), (52), (101) to (103), (105) to (107), (111), (112), (115), (119) to (124), (126) to (130), (133) to (135), (139), (142), (144) to (146), (149) to (151), (153), (154), (216) and (217) obtained by Formulation Example 5 were diluted with water so that the active ingredient concentration was 500 ppm, to prepare spray solutions for test. Separately, on a rice seedling (2 weeks after sowing, second leaf spreading stage) planted on a plastic cup, the drug solutions for test prepared as described above were sprayed each in an amount of 10 ml. After drying of the drug solution sprayed on rice, 20 first instar larvae of Nilaparvata lugens were released, and kept in a greenhouse of 25° C. for 6 days. Thereafter, the number of Nilaparvata lugens […] on rice was checked, and the control value was calculated according to the following formula. Control value (%)={1-(Cb×Tai)/(Cai×Tb)}×100 Letters in the formula represent the following meanings. Cb: the number of insect before treatment on non-treated district Cai: the number of insect in observation on non-treated district Tb: the number of insect before treatment on treated district Tai: the number of insect in observation on treated district

Aphis gossypii [5] = test: Test Example 4: foot drench of cucumber seedling in plastic cup, inoculation after 7 days, Aphis gossypii; conditions: soil, 144 h, 5 ml drench at foot of cucumber seedling in plastic cup, kept 7 days at 25° C., inoculated, further 6 days
Procedure, shortened: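 Cucumber seedlings at second true leaf stage were soil-drenched with 5 ml of 500 ppm active ingredient and held 7 days at 25° C in greenhouse. Then 30 aphids (all stages) were placed on leaves; live insects counted 6 days later, control value (%) from treated/untreated counts before and after.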

Aphis gossypii [6] = test: Test Example 2: foot drench of cucumber seedling on urethane mat, Aphis gossypii; conditions: soil, 168 h, 5 ml drench at foot of cucumber seedling on urethane mat, inoculated one day after treatment, checked seven days after
Description: The formulations of the present active compounds (4), (5), (8), (9), (11), (12), (14), (15), (17), (20), (35) to (45), (48) to (51), (54) to (56), (206), (209) and (211) to (213) obtained by Formulation Example 5 were diluted with water so that the active ingredient concentration was 500 ppm, to prepare diluted solutions for test. Separately, a cucumber seedling (second true leaf spreading stage) planted on a urethane mat was drenched at its foot with each 5 ml of the diluted solutions, and one day after treatment, the cucumber leaf surface was inoculated with 30 Aphis gossypii (whole stage). Further seven days after, the number of insect of living Aphis gossypii […] on the leaves of this cucumber was checked, and the control value was calculated according to the following formula. Control value (%)={1-(Cb×Tai)/(Cai×Tb)}×100 Letters in the formula represent the following meanings. Cb: the number of insect before treatment on non-treated district Cai: the number of insect in observation on non-treated district Tb: the number of insect before treatment on treated district Tai: the number of insect in observation on treated district

Nilaparvata lugens [7] = test: Test Example 7: foot drench of rice seedling, thirty first instar larvae of Nilaparvata lugens; conditions: soil, 144 h, 5 ml drench at foot of rice seedling, kept 7 days, thirty first instar larvae released, further 6 days
Description: The formulations of the present active compounds (11), (13) to (15), (17), (23), (26), (35) to (41), (43) to (45), (48) to (51), (54), (55), (209), (211) and (212) obtained by Formulation Example 5 were diluted with water so that the active ingredient concentration was 500 ppm, to prepare diluted solutions for test. Separately, a rice seedling (2 weeks after sowing, second leaf spreading stage) planted on a plastic cup was drenched at its foot with each 5 ml of the diluted solutions, and kept in a greenhouse of 25° C. for 7 days. Thirty first instar larvae of Nilaparvata lugens were released, and further kept in the greenhouse for 6 days. The number of insect of living Nilaparvata lugens […] on rice was checked, and the control value was calculated according to the following formula. Control value (%)={1-(Cb×Tai)/(Cai×Tb)}×100 Letters in the formula represent the following meanings. Cb: the number of insect before treatment on non-treated district Cai: the number of insect in observation on non-treated district Tb: the number of insect before treatment on treated district Tai: the number of insect in observation on treated district

Q: With `CC(CC(=O)O)n1c(-c2ccncc2)nc2cc(C(F)(F)F)ccc21` (centres unmarked) [comparative compound (B)] as the molecule, how does the control value (Aphis gossypii [1]) read?
A: less than 30%

Q: With `Cn1c(-c2cc[n+]([O-])cc2F)nc2cc(C(F)(F)F)ccc21` [present active compound 25, 2-(3-fluoro-1-oxypyridin-4-yl)-1-methyl-5-trifluoromethyl-1H-benzimidazole] as the molecule, how does the pest or weed control at 500 ppm (Bemisia tabaci) read?
A: ≥ 90%

Q: What about the pest or weed control at 500 ppm (Aphis gossypii [2]) of the same molecule?
A: ≥ 90%

Q: What about the pest or weed control at 500 ppm (Nilaparvata lugens [3]) of the same molecule?
A: ≥ 90%

Q: What about the pest or weed control at 500 ppm (Nilaparvata lugens [4]) of the same molecule?
A: ≥ 90%

Q: For `Cc1cc2nc(-c3ccncc3)n(C)c2cc1C` [comparative compound (C)], which control value (Aphis gossypii [1]) is on record?
A: less than 30%

Q: With `COCCc1cnccc1-c1nc2cc(C(F)(F)F)cnc2n1C` [present active compound 106] as the molecule, how does the pest or weed control at 500 ppm (Bemisia tabaci) read?
A: ≥ 90%

Q: And the pest or weed control at 500 ppm (Nilaparvata lugens [3])?
A: ≥ 90%

Q: What about the pest or weed control at 500 ppm (Aphis gossypii [5]) of the same molecule?
A: ≥ 90%

Q: `CCCCOc1cnccc1-c1nc2cc(C(F)(F)F)ccc2n1C` [present active compound 206, 2-(3-butoxypyridin-4-yl-)-1-methyl-5-trifluoromethyl-1H-benzimidazole] was tested. Which pest or weed control at 500 ppm (Bemisia tabaci) did it give?
A: ≥ 90%

Q: And the pest or weed control at 500 ppm (Aphis gossypii [6])?
A: ≥ 90%

Q: What does the source list for `C=C(CF)Oc1cnccc1-c1nc2cc(C(F)(F)F)ccc2n1C` [present active compound 209, 2-[3-(1-fluoromethyl-vinyloxy)-pyridin-4-yl-]-1-methyl-5-trifluoromethyl-1H-benzimidazole]?
A: pest or weed control at 500 ppm (Bemisia tabaci): ≥ 90%; pest or weed control at 500 ppm (Aphis gossypii [6]): ≥ 90%; pest or weed control at 500 ppm (Nilaparvata lugens [7]): ≥ 90%
